Measurements as given in patent US8415469B2, “Compounds and methods for kinase modulation, and indications therefor” (Plexxikon Inc., priority 2005, dated 2013).

How the values were obtained:
Format in all cases: biochemical
[1] = molecular target: T1, Jnk1 (Homo sapiens, UniProt P45983); assay: AlphaScreen kinase assay, Jnk1; conditions: read-out: IC50, activity toward kinase Jnk1
T1 construct: purchased Upstate Biotechnology

[2] = molecular target: T2, FGFR1 (Homo sapiens, UniProt P11362, C488A/C584S); assay: AlphaScreen kinase assay, FGFR1; conditions: read-out: IC50, activity toward kinase FGFR
T2 construct: P1351.pET N6 BI-PTP FGFR A458-E765-X C488A, C584S; made in house; host or cells: E. coli (PTP1B co-expressed)

[3] = molecular target: T3, Ret (Homo sapiens, UniProt P07949); assay: AlphaScreen kinase assay, Ret; conditions: read-out: IC50, activity toward kinase Ret
T3 construct: P1378.pET-SF BI-PTP RET H661-R1012 HIS; made in house
T3 sequence (P07949 with tags, fused parts or gaps): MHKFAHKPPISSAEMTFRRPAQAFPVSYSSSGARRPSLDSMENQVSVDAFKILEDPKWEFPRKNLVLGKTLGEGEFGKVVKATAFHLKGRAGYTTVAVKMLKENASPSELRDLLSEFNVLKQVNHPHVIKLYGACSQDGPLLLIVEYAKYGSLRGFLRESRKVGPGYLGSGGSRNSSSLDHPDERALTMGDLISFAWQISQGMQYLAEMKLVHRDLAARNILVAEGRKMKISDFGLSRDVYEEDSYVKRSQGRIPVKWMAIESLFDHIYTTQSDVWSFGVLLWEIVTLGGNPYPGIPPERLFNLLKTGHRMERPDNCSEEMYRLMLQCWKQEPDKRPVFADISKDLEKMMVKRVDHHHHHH

[4] = molecular target: T4, Kit (Homo sapiens, UniProt P10721); assay: AlphaScreen kinase assay, Kit; conditions: read-out: IC50, activity toward kinase Kit
T4 construct: P1332.N6 BI PTP KIT M552-K948-X COD; His6 (N); made in house; host or cells: E. coli (PTP1B co-expressed)

[5] = molecular target: T5, Kdr (Homo sapiens, UniProt P35968); assay: Z'-Lyte FRET kinase assay (Invitrogen), Kdr; conditions: read-out: IC50, activity toward kinase Kdr
T5 construct: purchased Invitrogen (assay run by Invitrogen)

[6] = molecular target: T6, Jnk3 (Homo sapiens, UniProt P53779); assay: AlphaScreen kinase assay, Jnk3; conditions: read-out: IC50, activity toward kinase Jnk3
T6 construct: purchased Upstate Biotechnology
Excerpt: (§1) AlphaScreen assay was used to screen additional kinases. The assay is similarly dependent on the phosphorylation of a peptide substrate. In this assay, an antibody that recognizes phosphorylated substrate is bound to an acceptor bead. The peptide substrate is attached to biotin, which binds to a donor head that contains streptavidin. Thus phosphorylated substrate is bound by antibody and streptavidin, bringing the donor and acceptor heads into close proximity when kinase is not inhibited. The donor produces singlet oxygen which results in emission from the acceptor when they are in close proximity. Conversely, when kinase is inhibited, the donor and acceptor beads are not associated and the emission from the acceptor is reduced.
(§2) AlphaScreen assays were done using compounds dissolved in DMSO to a concentration of 20 mM. The compounds were diluted accordingly to the desired final concentrations in each sample well, using 1:3 serial dilution for a total of 8 concentration points. Plates were prepared such that each kinase reaction is 20 μl in 1× kinase buffer, 5% DMSO and 10 μM ATP. After incubation of the kinase reaction for 1 hour at room temperature, 5 μl of donor beads in stop buffer (50 mM EDTA in 1× kinase buffer) was added, the sample was mixed and incubated for 20 minutes at room temperature before adding 5 μl of acceptor beads in stop buffer. The samples were incubated for 60 minutes at room temperature and the signal per well was read on AlphaQuest reader.

[7] = molecular target: T7, Flt1 (Homo sapiens, UniProt P17948); assay: AlphaScreen kinase assay, Flt1; conditions: read-out: IC50, activity toward kinase Flt1
T7 construct: P1826.pETN6 BI-PTP FLT1 M799-D1165-X WT; His6 (N); made in house; host or cells: E. coli (PTP1B co-expressed)
T7 sequence (P17948 with tags, fused parts or gaps): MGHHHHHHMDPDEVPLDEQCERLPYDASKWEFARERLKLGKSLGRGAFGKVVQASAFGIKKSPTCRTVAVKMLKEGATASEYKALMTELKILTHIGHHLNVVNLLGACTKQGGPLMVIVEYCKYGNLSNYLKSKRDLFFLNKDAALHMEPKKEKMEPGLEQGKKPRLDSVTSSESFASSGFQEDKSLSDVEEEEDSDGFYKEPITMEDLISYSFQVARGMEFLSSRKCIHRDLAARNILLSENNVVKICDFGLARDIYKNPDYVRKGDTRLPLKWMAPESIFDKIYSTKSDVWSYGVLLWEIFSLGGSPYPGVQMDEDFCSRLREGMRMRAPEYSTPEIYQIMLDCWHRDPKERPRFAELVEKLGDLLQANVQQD

[8] = molecular target: T8, B-Raf V600E (Homo sapiens, UniProt P15056, V600E); assay: AlphaScreen kinase assay, B-Raf V600E; conditions: read-out: IC50, activity toward kinase B-Raf V600E
T8 construct: P4254. pFastBacBD-CDC37 BRAF D437-K722-X, V600E; His6 with pFastBac HT leader (TEV site) (N); made in house; host or cells: Sf9 (baculovirus; chaperone CDC37 co-expressed)

[9] = molecular target: T9, B-Raf (Homo sapiens, UniProt P15056); assay: AlphaScreen kinase assay, B-Raf; conditions: read-out: IC50, activity toward kinase B-Raf
T9 construct: purchased Upstate Biotechnology
Excerpt: as §1, §2

[10] = molecular target: T10, Fms (Homo sapiens, UniProt P07333); assay: AlphaScreen kinase assay, Fms; conditions: read-out: IC50, activity toward kinase Fms
T10 construct: purchased Upstate Biotechnology

[11] = molecular target: T11, c-Raf-1 (Homo sapiens, UniProt P04049); assay: AlphaScreen kinase assay, c-Raf-1; conditions: read-out: IC50, activity toward kinase c-Raf-1
T11 construct: purchased Upstate Biotechnology

Measured: IC50

T8 sequence (P15056 with tags, fused parts or gaps V600E): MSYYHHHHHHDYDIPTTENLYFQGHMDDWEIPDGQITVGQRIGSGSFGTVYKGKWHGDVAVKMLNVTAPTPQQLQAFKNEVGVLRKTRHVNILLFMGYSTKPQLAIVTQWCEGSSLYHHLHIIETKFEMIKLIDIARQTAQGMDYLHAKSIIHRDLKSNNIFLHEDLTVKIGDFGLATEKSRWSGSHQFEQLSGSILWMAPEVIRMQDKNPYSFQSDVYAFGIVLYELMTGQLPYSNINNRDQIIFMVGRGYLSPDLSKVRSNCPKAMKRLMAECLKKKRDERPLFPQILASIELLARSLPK
T10 sequence (P07333 20-972): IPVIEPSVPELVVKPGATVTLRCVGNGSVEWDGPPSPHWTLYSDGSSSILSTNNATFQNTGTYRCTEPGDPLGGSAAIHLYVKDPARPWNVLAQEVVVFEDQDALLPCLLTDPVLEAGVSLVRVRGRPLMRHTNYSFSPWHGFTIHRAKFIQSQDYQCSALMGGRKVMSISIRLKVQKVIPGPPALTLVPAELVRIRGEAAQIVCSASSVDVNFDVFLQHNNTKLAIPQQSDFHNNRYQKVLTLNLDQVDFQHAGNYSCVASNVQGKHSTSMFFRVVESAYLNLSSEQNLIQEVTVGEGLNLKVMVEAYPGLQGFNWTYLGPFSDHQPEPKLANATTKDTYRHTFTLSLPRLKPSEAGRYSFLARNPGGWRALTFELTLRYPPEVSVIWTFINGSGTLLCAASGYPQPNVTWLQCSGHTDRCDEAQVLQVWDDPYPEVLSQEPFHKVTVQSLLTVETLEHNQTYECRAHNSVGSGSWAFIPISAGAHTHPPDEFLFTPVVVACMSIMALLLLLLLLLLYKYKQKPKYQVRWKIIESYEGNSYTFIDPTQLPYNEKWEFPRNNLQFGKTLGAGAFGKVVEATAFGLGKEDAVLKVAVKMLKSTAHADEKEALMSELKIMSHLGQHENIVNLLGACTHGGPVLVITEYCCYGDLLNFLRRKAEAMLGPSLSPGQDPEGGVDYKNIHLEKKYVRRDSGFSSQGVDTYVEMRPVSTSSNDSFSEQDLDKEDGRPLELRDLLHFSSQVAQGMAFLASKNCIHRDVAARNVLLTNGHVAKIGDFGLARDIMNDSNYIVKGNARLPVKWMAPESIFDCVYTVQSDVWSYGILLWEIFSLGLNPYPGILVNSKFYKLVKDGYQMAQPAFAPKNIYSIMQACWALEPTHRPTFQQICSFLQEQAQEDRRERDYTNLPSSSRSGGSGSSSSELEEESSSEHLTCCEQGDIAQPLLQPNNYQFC
T4 sequence (P10721 with tags, fused parts or gaps): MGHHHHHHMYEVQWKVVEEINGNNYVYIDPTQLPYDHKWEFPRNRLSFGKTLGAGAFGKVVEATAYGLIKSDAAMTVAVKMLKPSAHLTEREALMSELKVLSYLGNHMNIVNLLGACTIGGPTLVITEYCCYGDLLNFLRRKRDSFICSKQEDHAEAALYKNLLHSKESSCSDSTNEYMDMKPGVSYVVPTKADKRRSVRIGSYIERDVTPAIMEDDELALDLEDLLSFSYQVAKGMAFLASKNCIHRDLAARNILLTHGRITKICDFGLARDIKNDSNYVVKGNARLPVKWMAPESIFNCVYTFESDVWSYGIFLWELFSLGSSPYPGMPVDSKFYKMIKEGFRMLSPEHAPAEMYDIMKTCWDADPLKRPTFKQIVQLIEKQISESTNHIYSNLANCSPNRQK
T9 sequence (P15056 whole entry): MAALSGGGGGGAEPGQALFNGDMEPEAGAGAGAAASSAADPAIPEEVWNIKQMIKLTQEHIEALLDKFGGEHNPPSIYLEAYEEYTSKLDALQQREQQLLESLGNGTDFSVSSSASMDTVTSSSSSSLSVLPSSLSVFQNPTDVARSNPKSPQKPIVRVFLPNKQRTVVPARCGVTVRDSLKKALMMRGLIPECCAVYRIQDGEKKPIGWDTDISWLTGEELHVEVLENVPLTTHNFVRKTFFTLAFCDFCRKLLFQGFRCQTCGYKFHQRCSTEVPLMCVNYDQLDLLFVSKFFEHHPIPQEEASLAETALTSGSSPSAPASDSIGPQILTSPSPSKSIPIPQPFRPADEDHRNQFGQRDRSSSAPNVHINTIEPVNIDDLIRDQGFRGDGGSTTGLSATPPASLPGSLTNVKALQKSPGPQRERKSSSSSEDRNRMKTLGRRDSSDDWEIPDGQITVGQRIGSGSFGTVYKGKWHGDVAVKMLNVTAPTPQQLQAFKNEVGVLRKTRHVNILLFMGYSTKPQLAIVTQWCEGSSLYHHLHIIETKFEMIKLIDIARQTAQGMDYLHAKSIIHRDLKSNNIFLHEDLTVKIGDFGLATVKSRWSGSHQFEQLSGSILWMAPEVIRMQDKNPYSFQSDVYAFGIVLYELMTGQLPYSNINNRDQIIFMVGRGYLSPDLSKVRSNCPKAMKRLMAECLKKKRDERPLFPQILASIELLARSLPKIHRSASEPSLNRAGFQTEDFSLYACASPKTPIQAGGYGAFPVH
T1 sequence (P45983 whole entry): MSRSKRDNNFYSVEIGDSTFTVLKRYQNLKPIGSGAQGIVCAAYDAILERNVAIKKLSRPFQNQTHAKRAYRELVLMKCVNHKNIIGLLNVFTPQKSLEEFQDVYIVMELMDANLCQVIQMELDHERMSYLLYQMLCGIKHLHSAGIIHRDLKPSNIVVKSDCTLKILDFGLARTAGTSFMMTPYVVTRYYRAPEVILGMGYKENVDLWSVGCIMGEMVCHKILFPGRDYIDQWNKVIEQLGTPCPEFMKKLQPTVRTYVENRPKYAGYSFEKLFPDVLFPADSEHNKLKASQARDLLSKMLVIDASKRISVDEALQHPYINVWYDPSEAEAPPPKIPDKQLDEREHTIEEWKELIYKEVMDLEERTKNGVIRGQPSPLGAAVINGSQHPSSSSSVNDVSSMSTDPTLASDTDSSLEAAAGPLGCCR
T6 sequence (P53779 whole entry): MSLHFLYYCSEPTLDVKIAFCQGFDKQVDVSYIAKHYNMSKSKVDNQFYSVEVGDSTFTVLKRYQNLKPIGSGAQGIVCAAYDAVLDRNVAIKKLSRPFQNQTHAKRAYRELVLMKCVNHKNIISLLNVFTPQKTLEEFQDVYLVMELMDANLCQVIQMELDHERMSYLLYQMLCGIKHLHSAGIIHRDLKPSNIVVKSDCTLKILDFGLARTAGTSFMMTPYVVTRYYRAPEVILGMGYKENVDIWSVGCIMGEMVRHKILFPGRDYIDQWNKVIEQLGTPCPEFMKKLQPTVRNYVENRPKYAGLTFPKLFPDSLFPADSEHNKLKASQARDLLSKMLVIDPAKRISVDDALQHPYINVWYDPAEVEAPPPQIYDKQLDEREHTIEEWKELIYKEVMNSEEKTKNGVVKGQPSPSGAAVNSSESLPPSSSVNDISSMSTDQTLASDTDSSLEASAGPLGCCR
T5 sequence (P35968 20-1356): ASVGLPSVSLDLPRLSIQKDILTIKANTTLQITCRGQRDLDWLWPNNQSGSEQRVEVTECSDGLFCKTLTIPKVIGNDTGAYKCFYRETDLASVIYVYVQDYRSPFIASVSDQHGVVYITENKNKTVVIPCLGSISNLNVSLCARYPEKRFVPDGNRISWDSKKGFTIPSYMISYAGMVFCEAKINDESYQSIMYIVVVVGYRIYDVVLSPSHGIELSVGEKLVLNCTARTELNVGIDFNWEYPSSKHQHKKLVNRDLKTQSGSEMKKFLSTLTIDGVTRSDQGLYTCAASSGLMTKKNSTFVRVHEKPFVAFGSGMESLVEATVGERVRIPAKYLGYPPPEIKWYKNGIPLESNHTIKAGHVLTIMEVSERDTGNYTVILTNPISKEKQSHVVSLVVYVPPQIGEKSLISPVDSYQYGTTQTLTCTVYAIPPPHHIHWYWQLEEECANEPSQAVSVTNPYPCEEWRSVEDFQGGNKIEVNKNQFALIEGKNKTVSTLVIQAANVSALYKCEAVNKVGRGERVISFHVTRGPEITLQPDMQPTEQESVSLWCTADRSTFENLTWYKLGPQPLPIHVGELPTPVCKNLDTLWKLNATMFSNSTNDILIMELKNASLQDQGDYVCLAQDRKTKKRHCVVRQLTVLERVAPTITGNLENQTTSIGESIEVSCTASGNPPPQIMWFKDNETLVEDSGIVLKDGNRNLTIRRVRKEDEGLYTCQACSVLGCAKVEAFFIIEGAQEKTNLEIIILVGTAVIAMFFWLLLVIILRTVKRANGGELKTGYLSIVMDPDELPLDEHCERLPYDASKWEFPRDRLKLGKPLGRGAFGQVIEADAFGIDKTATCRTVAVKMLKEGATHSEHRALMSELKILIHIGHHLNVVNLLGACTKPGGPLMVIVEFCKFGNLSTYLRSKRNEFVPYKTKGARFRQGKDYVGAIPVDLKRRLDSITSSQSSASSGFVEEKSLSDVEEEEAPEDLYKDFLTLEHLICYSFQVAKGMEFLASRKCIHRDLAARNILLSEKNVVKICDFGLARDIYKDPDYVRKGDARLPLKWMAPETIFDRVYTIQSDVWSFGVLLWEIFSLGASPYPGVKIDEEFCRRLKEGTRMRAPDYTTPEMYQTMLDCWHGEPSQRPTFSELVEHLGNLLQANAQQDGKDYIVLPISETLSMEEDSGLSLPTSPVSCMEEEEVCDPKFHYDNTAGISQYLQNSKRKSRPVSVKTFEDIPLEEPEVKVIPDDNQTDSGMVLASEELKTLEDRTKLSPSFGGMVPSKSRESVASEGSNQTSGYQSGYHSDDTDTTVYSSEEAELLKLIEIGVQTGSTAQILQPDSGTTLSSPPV
T2 sequence (P11362 458-765 C488A/C584S): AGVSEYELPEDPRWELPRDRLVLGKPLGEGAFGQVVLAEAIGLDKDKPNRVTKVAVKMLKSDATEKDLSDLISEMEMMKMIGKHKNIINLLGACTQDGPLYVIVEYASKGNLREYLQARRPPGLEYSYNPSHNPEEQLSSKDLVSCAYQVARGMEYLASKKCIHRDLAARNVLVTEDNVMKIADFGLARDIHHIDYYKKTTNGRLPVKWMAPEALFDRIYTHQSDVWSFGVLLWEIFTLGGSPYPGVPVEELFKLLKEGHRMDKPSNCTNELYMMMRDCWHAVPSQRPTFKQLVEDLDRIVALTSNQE

c1csc(-c2ccnc3[nH]ccc23)c1 [Compound P-0431]
≤ 10 µM: [1]

Cc1cc(C(=O)c2c[nH]c3ncc(-c4ccsc4)cc23)no1 [Compound P-0640]
≤ 10 µM: [2] | [3] | [4] | [5] | [6] | [7]

Oc1ccc(Cc2c[nH]c3ncc(-c4ccsc4)cc23)cc1O [Compound P-0683]
not listed: [1] | [10] | [11]
≤ 10 µM: all other assays above

CCCS(=O)(=O)Nc1cccc(C(=O)c2c[nH]c3ncc(-c4cccnc4)cc23)c1C [Compound P-1631]
≤ 10 µM: [8] | [1] | [9] | [10]

CCCCNC(=O)Nc1ccc(F)c(C(=O)c2c[nH]c3ncc(Br)cc23)c1 [Compound P-1637, 1-[3-(5-Bromo-1H-pyrrolo[2,3-b]pyridine-3-carbonyl)-4-fluoro-phenyl]-3-butyl-urea]
≤ 10 µM: [8] | [1] | [9] | [10]

CCCS(=O)(=O)Nc1cccc(C(=O)c2c[nH]c3ncc(-c4cccnc4)cc23)c1 [Compound P-1638]
≤ 10 µM: [8] | [1] | [9] | [10]

CCCS(=O)(=O)Nc1cccc(C(=O)c2c[nH]c3ncc(-c4ccc(F)cc4)cc23)c1 [Compound P-1639]
≤ 10 µM: [8] | [1] | [9] | [10]

CCCCNC(=O)Nc1ccc(F)c(C(=O)c2c[nH]c3ncc(-c4cccc(OC(F)(F)F)c4)cc23)c1 [Compound P-1660, 1-Butyl-3-{4-fluoro-3-[5-(3-trifluoromethoxy-phenyl)-1H-pyrrolo[2,3-b]pyridine-3-carbonyl]-phenyl}-urea]
≤ 10 µM: [8] | [1] | [9] | [10]

O=C(Nc1cccc(C(=O)c2c[nH]c3ncccc23)c1)Nc1ccc(C(F)(F)F)cc1Cl [Compound P-1713, 1-(2-Chloro-4-trifluoromethyl-phenyl)-3-[3-(1H-pyrrolo[2,3-b]pyridine-3-carbonyl)-phenyl]-urea]
≤ 10 µM: [4] | [6] | [8] | [11] | [9] | [10]

COc1ccc(NC(=O)Nc2cccc(C(=O)c3c[nH]c4ncc(-c5cccnc5)cc34)c2)cc1OC [Compound P-1725, 1-(3,4-Dimethoxy-phenyl)-3-[3-(5-pyridin-3-yl-1H-pyrrolo[2,3-b]pyridine-3-carbonyl)-phenyl]-urea]
≤ 10 µM: [8] | [1] | [9] | [10]

Cc1ccc(S(=O)(=O)Nc2ccc(F)c(C(=O)c3c[nH]c4ncc(Cl)cc34)c2F)cc1 [Compound P-1842, N-[3-(5-Chloro-1H-pyrrolo[2,3-b]pyridine-3-carbonyl)-2,4-difluoro-phenyl]-4-methyl-benzenesulfonamide]
≤ 10 µM: [8] | [1] | [9]

OC(c1ccc(OCc2nc3ccccc3[nH]2)c(F)c1)c1c[nH]c2ncccc12 (stereo not shown) [Compound P-1898]
≤ 10 µM: [1]
